According to patent publication US20070128217A1 (priority 2003, published 2007):

What was measured:
[1] = tested on: rabbit serum obtained by immunizing a rabbit with the SARS-CoV strain Frankfurt 1; format: binding; design: Binding of a rabbit serum to linear peptides / Binding of a rabbit serum to looped peptides / Rabbit serum linear peptides / Rabbit serum looped peptides / Binding of a rabbit serum to linear peptides of protein N of SARS-CoV Urbani (Rabbit serum linear peptides) / Binding of a rabbit serum to looped/cyclic peptides of protein N of SARS-CoV Urbani (Rabbit serum looped peptides): unit not given here
[2] = tested on: control sera (pooled serum of ten healthy LUMC hospital workers; commercial negative donor pooled serum from the Dutch bloodbank); format: binding, human; design: Binding of Control serum LUMC to linear peptides / Binding of Control serum Blood-bank to linear peptides / Binding of Control serum LUMC to looped peptides / Binding of Control Serum Blood-Bank to Looped peptides / Binding of Control serum LUMC to linear peptides of the protein M of SARS-CoV Urbani / Binding of Control serum Blood-bank to linear peptides of the protein M of SARS-CoV Urbani / Binding of Control serum LUMC to looped peptides of the protein M of SARS-CoV Urbani / Binding of Control Serum Blood-Bank to Looped peptides of the protein M of SARS-CoV Urbani: unit not given here
[3] = tested on: antibodies in sera from SARS patients (sera 1a, 1b, 2, 6, 37, 62, London, SARS-yellow, SARS-green); format: binding, human; design: Binding of serum 6 to linear peptides of protein X1 of SARS-CoV Urbani / Binding of serum 37 to linear peptides of protein X1 of SARS-CoV Urbani / Binding of serum 6 to looped/cyclic peptide (PEPSCAN-ELISA) / Binding of serum 37 to looped/cyclic peptide (PEPSCAN-ELISA) / Binding of serum 37 to looped/cyclic peptides of protein X1 of SARS-CoV Urbani / Binding of serum 6 to linear peptides of protein X2 / Binding of serum 37 to linear peptides of protein X2 / Binding of serum 37 to looped/cyclic peptides of protein X2 of SARS-CoV Urbani / Binding of serum 6 to linear peptides of protein M of SARS-CoV Urbani / Binding of serum 37 to linear peptides of protein M of SARS-CoV Urbani / Binding of serum 6 to looped/cyclic peptides of protein M of SARS-CoV Urbani / Binding of serum 37 to looped/cyclic peptides of protein M of SARS-CoV Urbani / Binding of serum 6 to linear peptides of protein X3 of SARS-CoV Urbani / Binding of serum 37 to linear peptides of protein X3 of SARS-CoV Urbani / Binding of serum 37 to looped/cyclic peptides of protein X3 of SARS-CoV Urbani / Binding of serum 6 to linear peptides of protein X4 of SARS-CoV Urbani / Binding of serum 37 to linear peptides of protein X4 of SARS-CoV Urbani / Binding of serum 37 to looped/cyclic peptides of protein X4 of SARS-CoV Urbani / Binding of serum 6 to linear peptides of protein X5 of SARS-CoV Urbani / Binding of serum 37 to linear peptides of protein X5 of SARS-CoV Urbani / Binding of serum 37 to looped/cyclic peptides of protein X5 of SARS-CoV Urbani / Binding of serum 6 to linear peptides of protein N of SARS-CoV Urbani / Binding of serum 37 to linear peptides of protein N of SARS-CoV Urbani / Binding of serum 6 to linear peptide (PEPSCAN-ELISA) / Binding of serum 1a to looped/cyclic peptides of protein N of SARS-CoV Urbani / Binding of serum 1b to looped/cyclic peptides of protein N of SARS-CoV Urbani / Binding of serum 2 to looped/cyclic peptides of protein N of SARS-CoV Urbani / Binding of serum 6 to looped/cyclic peptides of protein N of SARS-CoV Urbani / Binding of serum 37 to looped/cyclic peptides of protein N of SARS-CoV Urbani / Binding of serum 62 to looped/cyclic peptides of protein N of SARS-CoV Urbani / Binding of serum London to looped/cyclic peptides of protein N of SARS-CoV Urbani / Binding of serum SARS-green to looped/cyclic peptides of protein N of SARS-CoV Urbani: unit not given here

Sequence | Binding of a rabbit serum to linear peptides [1] | Binding of a rabbit serum to looped peptides [1] | Binding of Control Serum Blood-Bank to Looped peptides [2] | Binding of Control serum Blood-bank to linear peptides [2] | Binding of Control serum LUMC to linear peptides [2] | Binding of Control serum LUMC to looped peptides [2] | Binding of serum 1a to linear peptides of protein X1 of SARS-CoV Urbani [3] | Binding of serum 1a to looped/cyclic peptide (PEPSCAN-ELISA) [3] | Binding of serum 1b to linear peptides of protein X1 of SARS-CoV Urbani [3] | Binding of serum 1b to looped/cyclic peptide (PEPSCAN-ELISA) [3] | Binding of serum 2 to linear peptides of protein X1 of SARS-CoV Urbani [3] | Binding of serum 2 to looped/cyclic peptide (PEPSCAN-ELISA) [3] | Binding of serum 6 to linear peptides of protein X1 of SARS-CoV Urbani [3] | Binding of serum 6 to looped/cyclic peptide (PEPSCAN-ELISA) [3] | Binding of serum 37 to linear peptides of protein X1 of SARS-CoV Urbani [3] | Binding of serum 37 to looped/cyclic peptide (PEPSCAN-ELISA) [3] | Binding of serum 62 to linear peptides of protein X1 of SARS-CoV Urbani [3] | Binding of serum 62 to looped/cyclic peptide (PEPSCAN-ELISA) [3] | Binding of serum London to linear peptides of protein X1 of SARS-CoV Urbani [3] | Binding of serum London to looped/cyclic peptide (PEPSCAN-ELISA) [3] | further results
LLKTHRMCKYTQSTA | 0.5 | 0.3 | 0.4 | 0.7 | 0.6 | 0.4 |  |  |  |  |  |  |  |  |  |  |  |  |  |  | Binding of serum 1a to linear peptides of protein X2 [3]: 0.8; Binding of serum 1a to looped/cyclic peptides of protein X2 of SARS-CoV Urbani [3]: 0.4; Binding of serum 1b to linear peptides of protein X2 [3]: 0.5; Binding of serum 1b to looped/cyclic peptides of protein X2 of SARS-CoV Urbani [3]: 0.3; Binding of serum 2 to linear peptides of protein X2 [3]: 0.6; Binding of serum 2 to looped/cyclic peptides of protein X2 of SARS-CoV Urbani [3]: 0.2; Binding of serum 6 to linear peptides of protein X2 [3]: 0.6; Binding of serum 6 to looped/cyclic peptides of protein X2 of SARS-CoV Urbani [3]: 0.3; Binding of serum 37 to linear peptides of protein X2 [3]: 0.7; Binding of serum 37 to looped/cyclic peptides of protein X2 of SARS-CoV Urbani [3]: 0.2; Binding of serum 62 to linear peptides of protein X2 [3]: 0.7; Binding of serum 62 to looped/cyclic peptides of protein X2 of SARS-CoV Urbani [3]: 0.4; Binding of serum London to linear peptides of protein X2 [3]: 0.5; Binding of serum London to looped/cyclic peptides of protein X2 of SARS-CoV Urbani [3]: 0.2; Binding of serum SARS-green to linear peptides of protein X2 [3]: 0.6; Binding of serum SARS-green to looped/cyclic peptides of protein X2 of SARS-CoV Urbani [3]: 0.2; Binding of serum SARS-yellow to linear peptides of protein X2 [3]: 0.8; Binding of serum SARS-yellow to looped/cyclic peptides of protein X2 of SARS-CoV Urbani [3]: 0.2
LLKVTAFQHQNSKKT | 0.6 | 0.3 | 0.4 | 0.3 | 0.3 | 0.5 |  |  |  |  |  |  |  |  |  |  |  |  |  |  | Binding of serum 1a to linear peptides of protein X2 [3]: 0.2; Binding of serum 1a to looped/cyclic peptides of protein X2 of SARS-CoV Urbani [3]: 0.4; Binding of serum 1b to linear peptides of protein X2 [3]: 0.0; Binding of serum 1b to looped/cyclic peptides of protein X2 of SARS-CoV Urbani [3]: 0.3; Binding of serum 2 to linear peptides of protein X2 [3]: 0.1; Binding of serum 2 to looped/cyclic peptides of protein X2 of SARS-CoV Urbani [3]: 0.2; Binding of serum 6 to linear peptides of protein X2 [3]: 0.2; Binding of serum 6 to looped/cyclic peptides of protein X2 of SARS-CoV Urbani [3]: 0.2; Binding of serum 37 to linear peptides of protein X2 [3]: 0.5; Binding of serum 37 to looped/cyclic peptides of protein X2 of SARS-CoV Urbani [3]: 0.3; Binding of serum 62 to linear peptides of protein X2 [3]: 0.1; Binding of serum 62 to looped/cyclic peptides of protein X2 of SARS-CoV Urbani [3]: 0.4; Binding of serum London to linear peptides of protein X2 [3]: 0.2; Binding of serum London to looped/cyclic peptides of protein X2 of SARS-CoV Urbani [3]: 0.2; Binding of serum SARS-green to linear peptides of protein X2 [3]: 0.1; Binding of serum SARS-green to looped/cyclic peptides of protein X2 of SARS-CoV Urbani [3]: 0.3; Binding of serum SARS-yellow to linear peptides of protein X2 [3]: 0.1; Binding of serum SARS-yellow to looped/cyclic peptides of protein X2 of SARS-CoV Urbani [3]: 0.3
LLLFVTIYSHLLLVA | 0.1 | 0.5 | 0.5 | 0.4 | 0.4 | 0.5 | 0.7 | 0.5 | 0.5 | 0.3 | 0.6 | 0.4 | 0.3 | 0.2 | 0.5 | 0.5 | 0.4 | 0.4 | 0.2 | 0.2 | Binding of serum SARS-green to linear peptides of protein X1 of SARS-CoV Urbani [3]: 0.0; Binding of serum SARS-green to looped/cyclic peptide (PEPSCAN-ELISA) [3]: 0.2; Binding of serum SARS-yellow to linear peptides of protein X1 of SARS-CoV Urbani [3]: 0.3; Binding of serum SARS-yellow to looped/cyclic peptide (PEPSCAN-ELISA) [3]: 0.4
LLLLFVTIYSHLLLV | 0.1 | 0.5 | 0.6 | 0.5 | 0.6 | 0.5 | 0.7 | 0.5 | 0.5 | 0.3 | 0.8 | 0.5 | 0.4 | 0.3 | 0.5 | 0.6 | 0.4 | 0.6 | 0.2 | 0.2 | Binding of serum SARS-green to linear peptides of protein X1 of SARS-CoV Urbani [3]: 0.3; Binding of serum SARS-green to looped/cyclic peptide (PEPSCAN-ELISA) [3]: 0.2; Binding of serum SARS-yellow to linear peptides of protein X1 of SARS-CoV Urbani [3]: 0.3; Binding of serum SARS-yellow to looped/cyclic peptide (PEPSCAN-ELISA) [3]: 0.5
LLLVAAGMEAQFLYL | 0.2 | 0.5 | 0.5 | 0.6 | 1.0 | 0.7 | 0.9 | 0.6 | 0.8 | 0.5 | 0.6 | 0.6 | 0.5 | 0.3 | 0.6 | 0.7 | 0.6 | 0.7 | 0.2 | 0.2 | Binding of serum SARS-green to linear peptides of protein X1 of SARS-CoV Urbani [3]: 0.1; Binding of serum SARS-green to looped/cyclic peptide (PEPSCAN-ELISA) [3]: 0.5; Binding of serum SARS-yellow to linear peptides of protein X1 of SARS-CoV Urbani [3]: 0.6; Binding of serum SARS-yellow to looped/cyclic peptide (PEPSCAN-ELISA) [3]: 0.6
